This assay has as its target T1, 5-lypoxygenase (Mus musculus, UniProt P48999).
T1 construct: The supernatant was used as the 5-lypoxygenase enzyme solution; endogenous in cells; host or cells: mouse mastocytoma P815 cells (supernatant of sonicated cells)
T1 sequence (P48999 1-674): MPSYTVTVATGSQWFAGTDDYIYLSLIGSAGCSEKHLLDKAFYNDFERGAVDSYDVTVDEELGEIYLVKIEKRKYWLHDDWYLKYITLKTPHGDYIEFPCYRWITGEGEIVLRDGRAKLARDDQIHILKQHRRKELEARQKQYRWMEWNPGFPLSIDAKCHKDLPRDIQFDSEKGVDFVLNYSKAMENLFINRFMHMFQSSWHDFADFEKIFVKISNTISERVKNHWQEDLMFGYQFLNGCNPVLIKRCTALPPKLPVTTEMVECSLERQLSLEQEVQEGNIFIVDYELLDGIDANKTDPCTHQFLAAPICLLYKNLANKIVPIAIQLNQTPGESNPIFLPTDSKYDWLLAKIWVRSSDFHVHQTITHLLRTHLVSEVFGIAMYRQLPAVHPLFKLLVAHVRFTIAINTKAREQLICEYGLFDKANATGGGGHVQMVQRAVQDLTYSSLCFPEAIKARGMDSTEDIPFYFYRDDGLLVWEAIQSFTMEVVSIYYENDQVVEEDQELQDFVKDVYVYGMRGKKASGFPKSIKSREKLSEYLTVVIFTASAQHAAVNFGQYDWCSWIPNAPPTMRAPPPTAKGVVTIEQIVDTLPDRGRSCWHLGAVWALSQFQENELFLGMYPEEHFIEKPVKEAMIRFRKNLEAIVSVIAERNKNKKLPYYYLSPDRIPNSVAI
Kind of assay: 5-Lypoxygenase-inhibiting activity (formation of 5-HETE and LTB4 from radiolabelled arachidonic acid, supernatant of sonicated mouse mastocytoma P815 cells). Format: biochemical. The following applies: inhibition of formation of 5-HETE and LTB4; 37° C., 5 min; pH 7.4 phosphate buffer; P815 cell supernatant; indomethacine present; read-out: 50% inhibitory concentration IC50. As to the method:
Mouse mastocytoma cells, strain P815 were diluted in a medium containing 90% of the Eagle basal medium (manufactured by Gibco Laboratories) to a cencentration of 5×10^4 cells/ml. The diluted liquor was subjected to shake culture in air at 37° C. for 48 hours. The culture liquor was cooled with ice and centrifuged to collect the cells. The cells were re-suspended in a phosphate buffer solution at pH 7.4 to a concentration of 2×10^7 cells/ml. The suspension was treated in an ultrasonic cell fragmenting machine and then centrifuged at […] for 10 min. The supernatant was used as the 5-lypoxygenase enzyme solution. To a test tube in which 20 μl of radiolabelled arachidonic acid (10 μ curies/ml), indomethacine ([…]) and an amide derivative of the invention to be tested were placed 0.45 ml of phosphate buffer solution, 0.45 ml of the above-prepared enzyme solution and 0.1 ml of 8 mM CaCl2 (calcium chloride) solution. The mixture was reacted at 37° C. for 5 min. […] Determination of the inhibitory activity was made by collecting the portion corresponding to 5-HBTE (5-(s)-hydroxy-6,8,11,14-eicosatetraenic acid) and LTB4 (leucotriene B4), which were 5-lypoxygenase products as detected with a radio-thin layer scanner (Dunnschicht-scanner II LB 2723 manufactured by Berthold), and measuring the radioactivity by means of a scintillation counter. […]

Take `COc1cc(/C=C/C(=O)Nc2c(Br)cc(Br)cc2CN(C)C2CCCCC2)ccc1O` [Example 1, N-cyclohexyl-N-methyl-(2-(3-(3-methoxy-4-hydroxyphenyl)-2-propenoylamino)-3,5-dibromobenzyl)amine]: the IC50 came to 4000 nM.
As for `COc1cc(/C=C/C=C/C(=O)Nc2c(Br)cc(Br)cc2CN(C)C2CCCCC2)ccc1O` [Example 2, N-cyclohexyl-N-methyl-(2-(5-(3-methoxy-4-hydroxyphenyl)2,4-pentadienoylamino)-3,5-dibromobenzyl)amine], the IC50 came out at 300 nM.

The values above are taken from patent US4816486A, “Amide derivatives and 5-lypoxygenase inhibitors containing the same” (Terumo Corporation, priority 1985, dated 1989).
